Data taken from patent US7531651B2, “Benzenesulphonate salt of a morpholine urea derivative for use as a CCR-3 antagonist in the treatment of inflammatory conditions” (Glaxo Group Limited, priority 2002, dated 2009).

Key:
[1] = Stability in aqueous solution (impurity profiles); settings: presence and absence of light, 8 days, pH range 2-10
From the text: Thus a convenient method for determining the stability of the compounds of the invention in aqueous solution involves determining the impurity profiles of an aqueous solution of the test compound at known conditions of temperature and over known periods of time.

[2] = target: T1, CCR-3 (Homo sapiens, UniProt P51677); test: CCR-3 competition binding SPA ([125I]eotaxin); settings: membranes from K562 cells stably expressing CCR-3; 20 pM [125I]eotaxin; read-out: pIC50 (inhibition of [125I]eotaxin binding) (converted)
T1 construct: expressed in transfected cells
T1 sequence (P51677 1-355): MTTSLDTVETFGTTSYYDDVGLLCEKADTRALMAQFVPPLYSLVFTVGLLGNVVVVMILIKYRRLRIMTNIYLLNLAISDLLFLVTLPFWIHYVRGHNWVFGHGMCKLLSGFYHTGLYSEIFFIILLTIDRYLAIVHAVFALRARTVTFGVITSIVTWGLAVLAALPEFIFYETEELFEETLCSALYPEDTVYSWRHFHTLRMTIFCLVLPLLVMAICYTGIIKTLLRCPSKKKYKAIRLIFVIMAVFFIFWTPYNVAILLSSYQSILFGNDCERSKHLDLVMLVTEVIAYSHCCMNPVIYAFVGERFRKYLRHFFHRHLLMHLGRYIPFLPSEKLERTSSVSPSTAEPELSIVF
Method: A CCR-3 competition binding SPA (scintillation proximity assay) was used to assess the affinity of novel compounds for CCR-3. Membranes prepared from K562 cells stably expressing CCR-3 (2.5 μg/well) were mixed with 0.25 mg/well wheat-germ agglutinin SPA beads (Amersham) and incubated in binding buffer (HEPES 50 mM, CaCl2 1 mM, MgCl2 5 mM, 0.5% BSA) at 4° C. for 1.5 hr. Following incubation, 20 pM of [^125I] eotaxin (Amersham) and increasing concentrations of compound (1 pM to 30 μM) were added and incubated in a 96 well plate for 2 hr at 22° C. then counted on a Microbeta plate counter. The total assay volume was 100 μl. Competition binding data were analysed by fitting the data with a four parameter logistic equation. Data are presented as the mean pIC50 values (negative logarithm of the concentration of compound which inhibits [^125I]eotaxin binding by 50%) from at least two experiments.

[3] = Hygroscopicity; assay type: physicochemical
[4] = Solid form storage stability tests (temperature/humidity/light)
From the text: The stability of the compound of the invention may be determined using conventional quantitative analytical methods: For example the stability of the compound in the solid form may be determined by using accelerated stability tests such as differential scanning calorimetry (DSC), thermogravimetric analysis (TGA) and isothermal testing at elevated temperatures including conventional storage tests wherein the test compound is stored under controlled conditions of temperature and humidity over known periods of time. Quantitative analysis of the test compounds, against appropriate reference standards before, during and after the storage period allows the stability of the test compound to be determined.

[5] = target: eosinophils; test: Eosinophil chemotaxis assay (eotaxin-induced); assay type: cell-based; settings: human peripheral blood eosinophils; agonist eotaxin at EC80
Method: (b) Eosinophil Chemotaxis Assay.
Compounds were evaluated for their inhibitory effect on eosinophil chemotaxis. Eosinophils were purified from human peripheral blood by standard CD16 cell depletion using a Miltenyi cell separation column and a magnetic Super Macs magnet as previously described (Motegi & Kita, 1998; J. Immunology. 161:4340-6). Cells were re-suspended in RPMI 1640/10% FCS solution and incubated with calcein-AM (Molecular Probes) at 37° C. for 30 mins. Following incubation, the eosinophils were centrifuged at 400 g for 5 min and re-suspended in RPMI/FCS at 2.2 million/ml. Cells were then incubated in the presence of increasing concentration of compounds (1 μM to 30 μM) at 37° C. for 30 mins. For control responses cells were incubated with RPMI/FCS only. The agonist eotaxin (either a concentration response curve or for the functional inhibition curves an EC80 concentration) was added to the lower chamber of a 96 well chemotaxis plate (5 μm filter: Receptor Technologies). […] Cells remaining on top of the chemotaxis filter were removed and the number of eosinophils which had migrated were quantified by reading the plate on a fluorescent plate reader. Inhibition curves for the effect of compounds on eosinophil chemotaxis were analysed by fitting the data with a four parameter logistic equation. […]

[6] = Solubility in water versus free base

## NC(=O)c1ccc(CNC(=O)NC[C@H]2CN(Cc3ccc(Cl)c(Cl)c3)CCO2)cc1.O.O.O=S(=O)(O)c1ccccc1 [compound of the invention, 4-({[({[(2S)-4-(3,4-dichlorobenzyl)morpholin-2-yl]methyl}amino)carbonyl]amino}methyl)benzamide benzenesulfonate dihydrate]
[1]
  aqueous stability: good aqueous stability
[2]
  IC50: < 10 µM
[3]
  hygroscopicity: non-hygroscopic
[4]; 50° C./ambient conditions, 25 days
  degradation on storage (solid form): no significant degradation
[4]; light cabinet, ambient conditions, 14 days
  degradation on storage (solid form): no significant degradation
[5]
  fpKi (functional pKi): greater than 5
[6]
  solubility in water compared with the free base: more soluble in water than the corresponding free base
